Measured values taken from patent EP1095657A2, “Compositions for the regulation of cytokine activity” (priority 1992, dated 1994).
Where two headings read alike, the source gives them in different places.

Experiments:
[1] = tested on: ELAM-1; experiment: TNF-α-induced expression of adhesion molecules by endothelial cells (ELISA); conditions: for Recombinant human TNFα-induced adhesion molecules (O.D 492): 1 h pretreatment of EC, TNFα alone 1.2±0.1
[2] = tested on: C57BL/6 skin grafts on BALB/c mice; experiment: Skin allograft rejection in mice; format: in vivo
Description: The effect of H-9392 was also tested in skin graft rejection experiments in mice. In particular, skin grafts from C57BL/6 donor mice (H-2^b) were applied to recipient BALB/c mice (H-2^d) according to the method of Baharav, E. et al. J. Immunol. Methods (1986) 90:143-144. The number of days to rejection was measured by the sloughing of the graft. The number of days to rejection was determined for a control group (injected with saline only, 0.1 ml), and test groups that received 3 ng or 300 ng of H-9392 by subcutaneous injection one day before grafting and weekly thereafter. The results, which are graphically represented in FIGS. 40 and 40A, reveal that the 3 ng/mouse dose delayed the level of skin graft rejection at 50% by 5 days!

[3] = tested on: adjuvant arthritis in Lewis rats; experiment: Adjuvant arthritis (AA) in rats; format: in vivo
[4] = tested on: ICAM-1; experiment: TNF-α-induced expression of adhesion molecules by endothelial cells (ELISA); conditions: 1 h pretreatment of EC, TNFα alone 2.2±0.2
[5] = tested on: secretion of active TNF-α by activated human CD4+ T cells; experiment: Bioassay of TNF-α activity using human CD4+ T cells derived from PBLs (human PBL bioassay); conditions: conc range of 1 µg/ml - 0.01 pg/ml; inconsistent = not the same result in all three bioassays
[6] = tested on: mortality after gamma irradiation; experiment: Radioprotective effect in gamma-irradiated mice; format: in vivo, BALB/c mice
Description: Groups of female BALB/c mice, 8 weeks old, 5-10 mice per group, were injected subcutaneously with either saline (0.1 ml, control), H-9392 (30 ng/mouse), or glucosamine (10,000 ng/mouse) 1 day before irradiation, and weekly thereafter until termination of the experiment on day 30. All the mice were irradiated to a dose of 700 rads using a ^60Co gamma radiation source.
In a separate experiment, groups of BALB/c mice (5 mice to a group) were likewise exposed to 750 rads of gamma-rays, except that these groups of mice were treated with test substances (saline at 0.1 ml per mouse; H-9392 at 0.3, 3, 30 and 300 ng/mouse; and glucosamine at 1, 10 and 100 µg/mouse) on the day before irradiation, on the sixth day after irradiation, and once again on the thirteenth day after irradiation only. All treatment ceased after the third and last administration.

[7] = tested on: respiratory distress after aerosolized OVA challenge; experiment: Experimental allergic bronchial asthma in rats; format: in vivo, Brown Norway rats; conditions: 30 ng s.c. on day 30, challenge on day 35; saline group Grade 3 or 4
Description: To assess the ability of substance H-9392 to prevent a bronchial asthma attack, 6 male Brown Norway rats were primed to ovalbumin (OVA) by subcutaneous injection of 1 mg of OVA in suspension with 200 mg AlOH/ml 0.9% saline solution accompanied by intraperitoneal injection of 1 ml solution containing 6x10^6 heat killed Bordetella pertussis bacteria (Pasteur Merieux, S.V.), on day zero. Subsequent challenges consisted of a 5 minute period of inhalation of OVA (1 mg/ml solution) aerosolized in a Devilbiss Nebulizer operated at an airflow of 6 L/min. Respiratory Distress (RD) responses were scored as Grade 0, no signs of distress; Grade 1, tachypnea; Grade 2, moderate labored breathing; Grade 3 severe labored breathing with mouth open; Grade 4, loss of consciousness and muscular tone. Sixteen days following primary immunization all animals were exposed to an initial aerosolized challenge to establish the positive control. The animals were coded so that the observer was ignorant of the subject animal's history.
On day thirty, the animals were divided into 2 groups and given either saline (control Group A) or 30 ng of substance H-9392, s.c., (Group B) and challenged on day 35 as above.

[8] = tested on: LPS-induced uveitis; conditions: for Median Protein: LPS with saline 18.4, no LPS 0.36

## O=C(O)C1=C[C@H](O)[C@@H](OS(=O)(=O)O)[C@H](O[C@H]2[C@H](O)[C@@H](NS(=O)(=O)O)C(O)O[C@@H]2CO)O1 (stereo partly drawn) [H-9392, 2-O-sulfate-4-deoxy-4-en-iduronic acid-(α-1,4)-2-deoxy-2-N-sulfateglucosamine]
[1]; 50 pg/ml, no TNFα 0.12±0.01
  Recombinant human TNFα-induced adhesion molecules (O.D 492): 0.6±0.1 O.D 492
[1]; 100 pg/ml
  Recombinant human TNFα-induced adhesion molecules (O.D 492): 0.9±0.07 O.D 492
[1]; ELAM-1 and ICAM-1 not told apart in the sentence
  inhibition of the up regulation of EC expression of adhesion molecules induced by TNF-α: up to 50%
[2]; 3 ng/mouse s.c. one day before grafting and weekly thereafter
  delay of the level of skin graft rejection at 50%: 5 days
[2]; 300 ng/mouse s.c. one day before grafting and weekly thereafter
  difference at 50% rejection relative to control, in words: failed to produce a significant difference
[3]; 120 ng/rat or 0.6 ng/gm rat s.c. weekly from 1 day before induction, 24 days after induction
  suppression of the inflammation of AA: up to 90%
[3]; weekly or daily, beginning at day 0 or at day 12
  effect on AA, in words: positive suppression of the severity of AA in all cases
[3]; weekly s.c. from day 12 to day 26, 120 ng disaccharide or 100 µg dexamethasone phosphate per rat
  effect on AA at 30 days post-induction, in words: almost complete suppression
[4]; 50 pg/ml, no TNFα 0.18±0.01
  Recombinant human TNFα-induced adhesion molecules (O.D 492): 1.0±0.04 O.D 492
[4]; 100 pg/ml
  Recombinant human TNFα-induced adhesion molecules (O.D 492): 1.4±0.03 O.D 492
[5]
  Bioassay of TNF Activity, in words: Inconsistent
[6]; 700 rads, by day 30, s.c. 1 day before irradiation and weekly, H-9392 30 ng/mouse, glucosamine 10,000 ng/mouse, saline 100%
  mortality rate: 40%
[6]; 750 rads, 30 ng/mouse, three administrations, 5 mice to a group
  mice that had died by the thirtieth day after irradiation: only one mouse
[6]; 750 rads, three administrations, 300 ng H-9392, 1 µg glucosamine
  activity in suppressing mortality after irradiation, in words: moderate activity in suppressing mortality
[7]
  respiratory distress after challenge, in words: mere tachypnea
[8]; 32 ng/rat at Day 1
  Median Protein: 5.2 mg/mL
[8]; 500 ng/rat at Day 1
  Median Protein: 4.8 mg/mL
[8]; single administration, at either dosage
  suppression of the inflammation relative to control: over 70%
